Laboratory results published in article PMC12661400, “Oral bioavailable ITRI-148 degrades androgen receptor variants and overcomes antiandrogen resistance in advanced prostate cancer” (Neoplasia (New York, N.Y.), 2025).

Legend:
VCaP xenografts = experiment: Castrated VCaP xenograft study; format: in vivo; details: for tumor growth inhibition (TGI): castrated mice
Text: Immunodifficient male CB-17 SCID mice (CB17/Icr-Prkdc^scid/IcrIcoCrlBltw) and NOD SCID mice (NOD.CB17-Prkdc^scid/NCrCrlBltw) mice at four to six weeks of age were purchased from BioLASCO Taiwan Co., Ilan, Taiwan. All mice were housed in conventional cages in the AAALAC Full Accreditation (2011) in Industrial Technology Research Institute and were allowed to acclimatize and recover from shipping-related stress for one week prior to the study. The health of the mice was monitored by daily observations. Animals were kept in rooms at temperature of 22–26°C with 40–70 % humidity, positive pressure, 60 % air recirculation, ventilation rate 15–20 changes per hour, and a controlled light-dark cycle (12–12 hours). The order and location of each animal cage was randomly assigned to minimize potential confounders. CWR22Rv1 cells (5 × 10^6) were suspended in 100 μL of PBS with 30 % Matrigel and subcutaneously implanted into the right flank of male CB-17 SCID mice. Tumors were measured with calipers, and tumor size was calculated as follows: tumor volume (V) = (L × S^2)/2 (L, longest diameter, mm; S, shortest diameter, mm). When mean tumor volume reached 150–200 mm^3, the mice were randomly assigned into indicated groups (n = 5-6/ group) and the day of initiating treatments was assigned as day 0. VCaP cells (5 × 10⁶) suspended in 50 % Matrigel were subcutaneously implanted into male NOD SCID mice. Once tumors reached approximately 250 mm³, castration surgery was performed. After tumor regression and subsequent regrowth to around 250 mm³, treatment with ITRI-148 was initiated. Oral (PO) gavage was used for the drug administration, including vehicle control and ITRI-148 treatments (7.5 mg/kg, 15 mg/kg, 30 mg/kg, or 60 mg/kg, BID). Tumor size and body weight of the animals were monitored and recorded two to three times per week. Mice were sacrificed when one of the tumor reached over 1000 mm^3 in size. Tumors were collected and immediately subjected to liquid nitrogen freezing and homogenization. The homogenized tumor samples were stored at −80°C for subsequent western blotting analysis. The drug antitumor efficacy was presented as percentages of TGI of each tested animal, calculated as follows: [1 − (final tumor volume ^treated group – initial tumor volume ^treated group) / (final tumor volume ^vehicle group – initial tumor volume ^vehicle group)] × 100. Body weight of each mouse was also compared to that on the first day of treatment (day 0) and expressed as a percentage of day 0 value. All data points were included for calculation and the values are presented as mean ± SEM. Statistical analysis of the differences between two drug and vehicle treated groups was determined by two-tailed Student’s t-test.

[1] = Repeated-dose toxicity study: mortality, body weight, tolerability; format: in vivo
Description: (§1) Repeated-dose toxicity and toxicokinetic studies
(§2) Repeated-dose oral toxicity study and toxicokinetic (TK) profiling was conducted in Sprague-Dawley rats. ITRI-148 was administered once daily using oral gavage at doses of 100, 300, 600, and 1000 mg/kg/day for 7 consecutive days, followed by a 7-day recovery period. Each dose group comprised 3 animals designated for toxicokinetic (TK) analysis and 6 animals for dose-range finding (DRF) evaluation. Clinical observations, body weights, and food consumption were monitored daily throughout the dosing and recovery periods. […]
All samples were analyzed in duplicate. Hematology and serum clinical chemistry analyses were performed on Day 7 (end of dosing) and Day 14 (end of recovery). At necropsy, organ weights (including heart, liver, kidney, spleen, thymus, and adrenal glands) were recorded, and gross pathological changes were examined. All procedures were conducted in compliance with institutional animal care and use guidelines. […]
(§3) Targeting androgen receptor and the variants by an orally bioavailable
(§4) Proteolysis Targeting Chimeras compound in castration resistant prostate cancer

[2] = Repeated-dose toxicity study: hematology; format: in vivo, Sprague-Dawley rats; details: rats
Description: as §1, §2
All samples were analyzed in duplicate. Hematology and serum clinical chemistry analyses were performed on Day 7 (end of dosing) and Day 14 (end of recovery). […]
All procedures were conducted in compliance with institutional animal care and use guidelines. […]
as §3, §4

CWR22Rv1 = experiment: MTT cell viability, 7 days; format: cell-based; details: 168 h
Description: (§5) Cells were seeded in 96-well plates and treated with drugs the next day. After 7 days, viability was assessed using MTT assay.
(§6) (C) Western blot analysis of AR and AR-V7 in C4-2B and C4-2B/MDVR cells after 48-hour ITRI-148 treatment. […] DEGs were determined relative to DMSO or pLKO.1 vector control. […] RPL13A was used for normalization. […] AR, AR-V7, and PSA expression in the drug-treated cells were detected across treatment timepoints.

C4-2B/MDVR = experiment: MTT cell viability, 7 days; format: cell-based; details: 168 h
Description: as §5, §6

PC3 = experiment: MTT cell viability, 7 days; format: cell-based
Description: as §5, §6

LNCaP95 = experiment: MTT cell viability, 7 days; format: cell-based; details: LNCaP-95, 168 h
Description: as §5, §6

PNT2 = experiment: MTT cell viability, 7 days; format: cell-based
Description: as §5, §6

VCaP = experiment: MTT cell viability, 7 days; format: cell-based; details: Homo sapiens, 168 h
Description: as §5, §6

LNCaP = experiment: MTT cell viability, 7 days; format: cell-based; details: Homo sapiens, 168 h
Description: as §5, §6

[3] = PO 100 mg/kg/day 7 days, Day 14 (recovery)
[4] = PO 300 mg/kg/day 7 days, Day 14 (recovery)
[5] = PO 600 mg/kg/day 7 days, Day 14 (recovery)
[6] = PO 1000 mg/kg/day 7 days, Day 7
[7] = PO 1000 mg/kg/day 7 days, Day 14 (recovery)

Q: Which “toxicity reflected by weight-loss of the animals” value (VCaP xenografts; PO 7.5-30 mg/kg BID) does the source give for `O=C1CCC(N2C(=O)c3cccc(NCC(=O)N4CCC(N5CCC(C#Cc6ccc(C7CCN(C8=Nn9c(nnc9C(F)(F)F)CC8)CC7)cc6)CC5)CC4)c3C2=O)C(=O)N1` (centres unmarked) [ITRI-148] here?
A: No toxicity reflected by weight-loss of the animals was observed

Q: What about the “tumor growth inhibition (TGI)” value (VCaP xenografts; PO 7.5 mg/kg BID) of the same compound?
A: 49.06%

Q: What about the “tumor growth inhibition (TGI)” value (VCaP xenografts; PO 15 mg/kg BID) of the same compound?
A: 95.08%

Q: And the “tumor growth inhibition (TGI)” value (VCaP xenografts; PO 30 mg/kg BID, average)?
A: 147.07%

Q: What about the “margin of maximum rat dose (1000 mg/kg) over the efficacious dose used in xenograft model” value ([1]; rat, in vivo) of the same compound?
A: > 10 fold

Q: And the body weight loss ([1]; rats, PO 100-1000 mg/kg/day, any treatment group)?
A: No animal exhibited >10% weight loss in any treatment group

Q: What about the HGB ([2]; PO 100 mg/kg/day 7 days, Day 7) of the same compound?
A: 20.3 ± 0.2 g/dL

Q: And the PLT ([2]; PO 100 mg/kg/day 7 days, Day 7)?
A: 915 ± 368 x103 cells/µL

Q: And the RBC ([2]; PO 100 mg/kg/day 7 days, Day 7)?
A: 7.51 ± 0.13 x106 cells/µL

Q: What about the WBC ([2]; PO 100 mg/kg/day 7 days, Day 7) of the same compound?
A: 8.72 ± 2.37 x103 cells/µL

Q: And the HGB [2, 3]?
A: 21.9 ± 3.2 g/dL

Q: What about the PLT [2, 3] of the same compound?
A: 1049 ± 231 x103 cells/µL

Q: And the RBC [2, 3]?
A: 8.18 ± 1.17 x106 cells/µL

Q: What about the WBC [2, 3] of the same compound?
A: 7.52 ± 5.51 x103 cells/µL

Q: And the HGB ([2]; PO 300 mg/kg/day 7 days, Day 7)?
A: 20 ± 1.4 g/dL

Q: And the PLT ([2]; PO 300 mg/kg/day 7 days, Day 7)?
A: 956 ± 108 x103 cells/µL

Q: And the RBC ([2]; PO 300 mg/kg/day 7 days, Day 7)?
A: 7.15 ± 0.4 x106 cells/µL

Q: What about the WBC ([2]; PO 300 mg/kg/day 7 days, Day 7) of the same compound?
A: 8.19 ± 2.89 x103 cells/µL

Q: And the HGB [2, 4]?
A: 24.1 ± 0.4 g/dL

Q: And the PLT [2, 4]?
A: 1128 ± 236 x103 cells/µL

Q: What about the RBC [2, 4] of the same compound?
A: 8.91 ± 0.17 x106 cells/µL

Q: What about the WBC [2, 4] of the same compound?
A: 9.56 ± 1.57 x103 cells/µL

Q: What about the HGB ([2]; PO 600 mg/kg/day 7 days, Day 7) of the same compound?
A: 20.6 ± 1.9 g/dL

Q: And the PLT ([2]; PO 600 mg/kg/day 7 days, Day 7)?
A: 986 ± 252 x103 cells/µL

Q: What about the RBC ([2]; PO 600 mg/kg/day 7 days, Day 7) of the same compound?
A: 7.51 ± 0.53 x106 cells/µL

Q: And the WBC ([2]; PO 600 mg/kg/day 7 days, Day 7)?
A: 8.68 ± 4.58 x103 cells/µL

Q: What about the HGB [2, 5] of the same compound?
A: 21.6 ± 0.8 g/dL

Q: And the PLT [2, 5]?
A: 1022 ± 446 x103 cells/µL

Q: What about the RBC [2, 5] of the same compound?
A: 7.87 ± 0.45 x106 cells/µL

Q: And the WBC [2, 5]?
A: 5.27 ± 2.39 x103 cells/µL

Q: And the HGB [2, 6]?
A: 20.7 ± 1.3 g/dL

Q: What about the PLT [2, 6] of the same compound?
A: 892 ± 66 x103 cells/µL

Q: What about the RBC [2, 6] of the same compound?
A: 7.52 ± 0.31 x106 cells/µL

Q: What about the WBC [2, 6] of the same compound?
A: 7.48 ± 2.72 x103 cells/µL

Q: What about the HGB [2, 7] of the same compound?
A: 21.6 ± 1 g/dL

Q: And the PLT [2, 7]?
A: 1140 ± 222 x103 cells/µL

Q: And the RBC [2, 7]?
A: 8.33 ± 0.35 x106 cells/µL

Q: What about the WBC [2, 7] of the same compound?
A: 8.28 ± 0.31 x103 cells/µL

Q: What about the IC50 (CWR22Rv1) of the same compound?
A: 2150 nM

Q: And the IC50 (C4-2B/MDVR)?
A: 1600 nM

Q: And the “sensitivity of cell viability” value (PC3; AR-negative CRPC cells (PC3))?
A: insensitive

Q: What about the IC50 (PC3; Homo sapiens, PC-3, PC3, MTT) of the same compound?
A: > 10000 nM

Q: What about the IC50 (LNCaP95) of the same compound?
A: 1960 nM

Q: What about the IC50 (PNT2; Homo sapiens, PNT2, MTT) of the same compound?
A: > 10000 nM

Q: What about the “sensitivity of cell viability” value (PNT2; normal prostate epithelial cells (PNT2)) of the same compound?
A: insensitive

Q: And the IC50 (VCaP)?
A: 890 nM

Q: What about the IC50 (LNCaP) of the same compound?
A: 170 nM
